From patent US5250683A, “Certain substituted taxanes and pharmaceutical compositions containing them” (Florida State University, priority 1992, dated 1993)

Tested on: tubulin
Experiment: Tubulin binding assay (Tubulin Assay), method of Parness et al.
Conditions: compared to taxol and taxotere

Row | Compound | Tubulin Assay Init. Peak | Tubulin Assay Rel. Rate
1 | CC(=O)O[C@H]1C(=O)[C@@]2(C)[C@H]([C@H](OC(=O)c3ccccc3)[C@]3(O)C[C@H](OC(=O)[C@H](O)[C@@H](NC(=O)c4ccc(C)cc4)c4ccccc4)C(C)=C1C3(C)C)[C@]1(OC(C)=O)CO[C@@H]1C[C@@H]2O [Example 12, N-debenzoyl-N-(4-methylbenzoyl) taxol] | 107 | 110
2 | COc1ccc([C@H](NC(=O)c2ccc(Cl)cc2)[C@@H](O)C(=O)O[C@H]2C[C@@]3(O)[C@@H](OC(=O)c4ccccc4)[C@@H]4[C@]5(OC(C)=O)CO[C@@H]5C[C@H](O)[C@@]4(C)C(=O)[C@H](OC(C)=O)C(=C2C)C3(C)C)cc1 [Example 29, N-debenzoyl-N-(4-chlorobenzoyl)-3'-desphenyl-3'-(4-methoxyphenyl) taxol] | 42 | 72
3 | CC(=O)O[C@H]1C(=O)[C@@]2(C)[C@H]([C@H](OC(=O)c3ccccc3)[C@]3(O)C[C@H](OC(=O)[C@H](O)[C@@H](NC(=O)c4ccc(F)cc4)c4ccc(F)cc4)C(C)=C1C3(C)C)[C@]1(OC(C)=O)CO[C@@H]1C[C@@H]2O [Example 15, N-debenzoyl-N-(4-fluorobenzoyl)-3'-desphenyl-3'-(4-fluorophenyl) taxol] | 89 | 98
4 | CC(=O)O[C@H]1C(=O)[C@@]2(C)[C@H]([C@H](OC(=O)c3ccccc3)[C@]3(O)C[C@H](OC(=O)[C@H](O)[C@@H](NC(=O)c4ccc(F)cc4)c4ccccc4)C(C)=C1C3(C)C)[C@]1(OC(C)=O)CO[C@@H]1C[C@@H]2O [Example 16, N-debenzoyl-N-(4-fluorobenzoyl) taxol] | 66 | 90
5 | CC(=O)O[C@H]1C(=O)[C@@]2(C)[C@H]([C@H](OC(=O)c3ccccc3)[C@]3(O)C[C@H](OC(=O)[C@H](O)[C@@H](NC(=O)c4ccc(Br)cc4)c4ccccc4)C(C)=C1C3(C)C)[C@]1(OC(C)=O)CO[C@@H]1C[C@@H]2O [Example 11, N-debenzoyl-N-(4-bromobenzoyl) taxol] | 67 | 88
6 | CC(=O)O[C@H]1C(=O)[C@@]2(C)[C@H]([C@H](OC(=O)c3ccccc3)[C@]3(O)C[C@H](OC(=O)[C@H](O)[C@@H](NC(=O)c4ccccc4)c4cccc5ccccc45)C(C)=C1C3(C)C)[C@]1(OC(C)=O)CO[C@@H]1C[C@@H]2O [Example 1, 3'-desphenyl-3'-(1-naphthyl) taxol] | 0 | 0
7 | CC(=O)O[C@H]1C(=O)[C@@]2(C)[C@H]([C@H](OC(=O)c3ccccc3)[C@]3(O)C[C@H](OC(=O)[C@H](O)[C@@H](NC(=O)c4ccc(Cl)cc4)c4ccc(Cl)cc4)C(C)=C1C3(C)C)[C@]1(OC(C)=O)CO[C@@H]1C[C@@H]2O [Example 24, N-debenzoyl-N-(4-chlorobenzoyl)-3'-desphenyl-3'-(4-chlorophenyl) taxol] | 35 | 60
8 | COc1ccc(C(=O)N[C@@H](c2ccccc2)[C@@H](O)C(=O)O[C@H]2C[C@@]3(O)[C@@H](OC(=O)c4ccccc4)[C@@H]4[C@]5(OC(C)=O)CO[C@@H]5C[C@H](O)[C@@]4(C)C(=O)[C@H](OC(C)=O)C(=C2C)C3(C)C)cc1 [Example 14, N-debenzoyl-N-(4-methoxybenzoyl) taxol] | 95 | 99
9 | CC(=O)O[C@H]1C(=O)[C@@]2(C)[C@H]([C@H](OC(=O)c3ccccc3)[C@]3(O)C[C@H](OC(=O)[C@H](O)[C@@H](NC(=O)c4ccc(F)cc4)c4ccc(Cl)cc4)C(C)=C1C3(C)C)[C@]1(OC(C)=O)CO[C@@H]1C[C@@H]2O [Example 23, N-debenzoyl-N-(4-fluorobenzoyl)-3'-desphenyl-3'-(4-chlorophenyl) taxol] | 63 | 88
10 | CC(=O)O[C@H]1C(=O)[C@@]2(C)[C@H]([C@H](OC(=O)c3ccccc3)[C@]3(O)C[C@H](OC(=O)[C@H](O)[C@@H](NC(=O)c4ccc(C(C)(C)C)cc4)c4ccc(F)cc4)C(C)=C1C3(C)C)[C@]1(OC(C)=O)CO[C@@H]1C[C@@H]2O [Example 27, N-debenzoyl-N-(4-t-butylbenzoyl)-3'-desphenyl-3'-(4-fluorophenyl) taxol] | 55 | 82
11 | COc1ccc([C@H](NC(=O)c2ccccc2)[C@@H](O)C(=O)O[C@H]2C[C@@]3(O)[C@@H](OC(=O)c4ccccc4)[C@@H]4[C@]5(OC(C)=O)CO[C@@H]5C[C@H](O)[C@@]4(C)C(=O)[C@H](OC(C)=O)C(=C2C)C3(C)C)cc1OC [Example 7, 3'-desphenyl-3'-(3,4-dimethoxyphenyl) taxol] | 11 | 26
12 | CC(=O)O[C@H]1C(=O)[C@@]2(C)[C@H]([C@H](OC(=O)c3ccccc3)[C@]3(O)C[C@H](OC(=O)[C@H](O)[C@@H](NC(=O)c4ccc(Br)cc4)c4ccc(Cl)cc4)C(C)=C1C3(C)C)[C@]1(OC(C)=O)CO[C@@H]1C[C@@H]2O [Example 25, N-debenzoyl-N-(4-bromobenzoyl)-3'-desphenyl-3'-(4-chlorophenyl) taxol] | 60 | 83
13 | CC(=O)O[C@H]1C(=O)[C@@]2(C)[C@H]([C@H](OC(=O)c3ccccc3)[C@]3(O)C[C@H](OC(=O)[C@H](O)[C@@H](NC(=O)c4ccccc4)c4ccc(F)cc4)C(C)=C1C3(C)C)[C@]1(OC(C)=O)CO[C@@H]1C[C@@H]2O [Example 9, 3'-desphenyl-3'-(4-fluorophenyl) taxol] | 100 | –
14 | COc1ccc(C(=O)N[C@@H](c2ccc(F)cc2)[C@@H](O)C(=O)O[C@H]2C[C@@]3(O)[C@@H](OC(=O)c4ccccc4)[C@@H]4[C@]5(OC(C)=O)CO[C@@H]5C[C@H](O)[C@@]4(C)C(=O)[C@H](OC(C)=O)C(=C2C)C3(C)C)cc1 [Example 28, N-debenzoyl-N-(4-methoxybenzoyl)-3'-desphenyl-3'-(4-fluorophenyl) taxol] | 106 | 97
15 | COc1ccc([C@H](NC(=O)c2ccccc2)[C@@H](O)C(=O)O[C@H]2C[C@@]3(O)[C@@H](OC(=O)c4ccccc4)[C@@H]4[C@]5(OC(C)=O)CO[C@@H]5C[C@H](O)[C@@]4(C)C(=O)[C@H](OC(C)=O)C(=C2C)C3(C)C)cc1 [Example 3, 3'-desphenyl-3'-(4-methoxyphenyl) taxol] | 59 | 87
16 | COc1ccc([C@H](NC(=O)c2ccc(Br)cc2)[C@@H](O)C(=O)O[C@H]2C[C@@]3(O)[C@@H](OC(=O)c4ccccc4)[C@@H]4[C@]5(OC(C)=O)CO[C@@H]5C[C@H](O)[C@@]4(C)C(=O)[C@H](OC(C)=O)C(=C2C)C3(C)C)cc1 [Example 30, N-debenzoyl-N-(4-bromobenzoyl)-3'-desphenyl-3'-(4-methoxyphenyl) taxol] | 44 | 70
17 | CC(=O)O[C@H]1C(=O)[C@@]2(C)[C@H]([C@H](OC(=O)c3ccccc3)[C@]3(O)C[C@H](OC(=O)[C@H](O)[C@@H](NC(=O)c4ccc(C)cc4)c4ccc(Cl)cc4)C(C)=C1C3(C)C)[C@]1(OC(C)=O)CO[C@@H]1C[C@@H]2O [Example 17, N-debenzoyl-N-(4-methylbenzoyl)-3'-desphenyl-3'-(4-chlorophenyl) taxol] | 101 | 98
